Assays:
[1] = tested on: Kunming mice; conditions: positive control 35 mg/kg
[2] = tested on: Kunming mice; conditions: positive control 35 mg/kg; remark: listed apart in the source
[3] = Body weight of mice in the laxative study; format: in vivo, mouse; conditions: Positive control group (diphenoxylate 50 mg/kg BW)
Protocol: (§1) The content of GI Capsules was tested for laxative effects, i.e., the effects of the loosening the bowels to relieve constipation, on mouse models for constipation. Healthy Kunming mice were divided randomly into 5 groups, 20 in each group. […] The negative control group consists of 20 mice fed normally and the positive control group 20 mice fed with diphenoxylate at 50 mg/kg BW.
(§2) The test samples were diluted with distilled water into required concentrations and volume of 0.1 ml/10 g BW, and continuously administrated to the mice by oral gavage once a day for 14 days. The mice were fed with normal food during this period. On the last day of administration, mice were kept on fast for 24 hours overnight, but water was given. Then the content of GI Capsules were administered to mice in the three dosage groups by oral gavage. Twenty minutes later, diphenoxylate (50 mg/kg) was administered to all animals except those in the negative control group at the dosage of 0.1 ml/10 g. Ten minutes later, carbon ink (5% carbo activatus, 10% Arabic gum) was administered to all animals by oral gavage at the dosage of […]. All animals in each group were divided into two subgroups, 10 mice in each subgroup. One subgroup in each group was kept for observation of their dejection for 24 hours. The other was killed twenty minutes later and cut open the belly to measure the length of small intestine and the distance between pylorus and the front line of carbon ink to calculate carbon moving rates.

[4] = tested on: Kunming mice constipated by diphenoxylate; experiment: Laxative effects on mouse models for constipation (diphenoxylate); format: in vivo; conditions: Positive control group, diphenoxylate 50 mg/kg alone
Protocol: as §1, §2

[5] = tested on: Salmonella strain TA102 base substitutive mutation strain; format: cell-based; conditions: Positive Control/plate
Protocol: To test mutagenicity of the content of GI Capsules, Ames tests were conducted on four Salmonella strains: TA97a, TA98 frameshift mutation strain, TA100, and TA102 base substitutive mutation strain. Ames (1983) Mutation Research 113:173-215. Five genetic characteristics of these four strains were determined to meet the requirement for the testing. The content of GI Capsules at five concentrations was tested: 5 mg/plate, 2.5 mg/plate, 1.0 mg/plate, 0.5 mg/plate, 0.1 mg/plate. The negative control was PBS. […]

[6] = tested on: Salmonella strain TA100; experiment: Ames test, strain TA100; format: cell-based; conditions: Positive Control/plate, 2 ul

O=P1(N(CCCl)CCCl)NCCCO1 (stereo not shown) [CP, cyclophosphamide]
Micronucleus rate, Female ([1]; female mice): 21.2 ± 2.28 ‰ | Micronucleus PCE, Female ([1]; female mice, of 5000 PCE): 106 | Micronucleus rate, Male ([1]; male mice): 20.6 ± 2.41 ‰ | Micronucleus PCE, Male ([1]; male mice, of 5000 PCE): 103 | Aberration rate [2]: 20.80 ± 0.98% | Aberrant sperm ([2]; 10 mice, of 10000 sperm): 2080

CCOC(=O)C1(c2ccccc2)CCN(CCC(C#N)(c2ccccc2)c2ccccc2)CC1 [diphenoxylate]
Weight 0th day [3]: 19.5 ± 1.2 | Weight 7th day [3]: 25.3 ± 0.9 | Weight 14th day [3]: 29.2 ± 1.4 | Carbon moving rate [4]: 33.2 ± 10.5% | First dejection time [4]: 230.6 ± 56.0 min | Total amounts of dejection ([4]; 24 hours observation): 1.0 ± 0.2 g | Weight Dung grain ([4]; 24 hours observation): 16.4 ± 3.6 grain

COS(C)(=O)=O [MMS]
Ames mutation data TA102 −S9 ([5]; 2 ul): 2960.00 | Ames mutation data TA100 −S9 [6]: 1460.00

Nc1ccc2cc3ccccc3cc2c1 [2-AA]
Ames mutation data TA102 +S9 ([5]; 12 ug): 1411.00

Source: US7399492B2, “Composition and method for issue repair and regeneration” (priority 2001, dated 2008)
